Laboratory results taken from patent US5888999A, “Method for treating anxiety with muscarinic cholinergic receptor agonists” (Eli Lilly and Company, priority 1997, dated 1999).

Tests used:
[1] = target: muscarinic acetylcholine receptors; assay: inhibition of specific binding of ^3 H-Oxotremorine-M (^3 H-Oxo) to rat cortex; design: species or system rat (male Wistar); details: ^3 H-Oxotremorine 1.0 nM, 30 min, 25° C.
From the text: The pharmacological properties of the compounds of the invention can be illustrated by determining their capability to inhibit the specific binding of ^3 H-Oxotremorine-M (^3 H-Oxo). Birdsdall N. J. M., Hulme E. C., and Burgen A. S. V. (1980). "The Character of Muscarinic Receptors in Different Regions of the Rat Brain". Proc. Roy. Soc. London (Series B) 207,1.
^3 H-Oxo labels muscarinic receptor in the CNS (with a preference for agonist domains of the receptors). Three different sites are labeled by ^3 H-Oxo. […] Using the present experimental conditions only the high and medium affinity sites are determined.
The inhibitory effects of compounds on ^3 H-oxo binding reflects the affinity for muscarinic acetylcholine receptors.
All preparations are performed at 0°-4° C. unless otherwise indicated. Fresh cortex (0.1-1 g) from male Wistar rats (150-250 g) is homogenized for 5-10 s in 10 mL […] Hepes pH: 7.4, with an Ultra-Turrax homogenizer. The homogenizer is rinsed with 10 mL of buffer and the combined suspension centrifuged for 15 min. at 40,000×g. The pellet is washed three times with buffer. In each step the pellet is homogenized as before in 2×10 mL of buffer and centrifuged for 10 min. at 40,000×g.
The final pellet is homogenized in 20 mM Hepes pH: 7.4 (100 mL per g of original tissue) and used for binding assay. Aliquots of 0.5 mL is added 25 μL of test solution and 25 μL of ^3 H-Oxotremorine (1.0 nM, final concentration) mixed and incubated for 30 min. at 25° C. Non-specific binding is determined in triplicate using arecoline (1 μg/mL, final concentration) as the test substance. After incubation samples are added 5 mL of ice-cold buffer and poured directly onto Whatman GF/C glass fiber filters under suction and immediately washed 2 times with 5 mL of ice-cold buffer. The amount of radioactivity on the filters are determined by conventional liquid scintillation counting. Specific binding is total binding minus non specific binding.
Test substances are dissolved in 10 mL water (if necessary heated on a steam-bath for less than 5 min.) at a concentration of 2.2 mg/mL. 25-75% inhibition of specific binding must be obtained before calculation of IC50. The test value will be given as IC50 (the concentration (nM) of the test substance which inhibits the specific binding of ^3 H-oxo by 50%).
IC50 =(applied test substance concentration)×(Cx /Co
where Co is specific binding in control assays and Cx is the specific binding in the test assay. (The calculations assume normal mass-action kinetics).

[2] = tested on: 5-HT1A receptor; details: only at the 5-HT1A and dopamine receptors; cited from earlier work
[3] = tested on: dopamine receptors; details: only at the 5-HT1A and dopamine receptors; cited from earlier work
[4] = tested on: M1-sites (muscarinic receptors); details: cited from earlier work

SMILES | IC50 [1] [nM] | other results
CCCCCCSc1nccnc1OC1CN2CCC1CC2 (racemic) [Compound 12, (+/-)-3-(1-Hexylthio)-2-(1-azabicyclo[2.2.2]octyl-3-oxy)pyrazine] | 25 | 
FC(F)(F)CSc1nccnc1O[C@H]1CN2CCC[C@@H]1C2 (relative stereo) [Compound 33, (±)-endo-2-(2,2,2,-Trifluoroethylthio)-3-(1-azabicyclo[3.2.1]octyl-6-oxy)pyrazine] | 1.5 | 
CC(C)CCSc1nccnc1O[C@H]1CN2CCC[C@@H]1C2 (relative stereo) [Compound 37, (±)-endo-2-(3-Methylbutylthio)-3-(1-azabicyclo[3.2.1]octyl-6-oxy)pyrazin] | 1.3 | 
C[N+](C)(C)CCOc1cnccn1 [Compound 27, 2-(2-Trimethylaminoethoxy)pyrazine iodide] | > 1000 | 
CCCSc1nccnc1O[C@H]1CN2CCC[C@@H]1C2 (relative stereo) [Compound 29, (±)-endo-2-Propylthio-3-(1-azabicyclo[3.2.1]octyl-6-oxy)pyrazine] | 1.7 | 
C=CCSc1nccnc1O[C@H]1CN2CCC[C@@H]1C2 (relative stereo) [Compound 36, (±)-endo-2-(2-propenylthio)-3-(1-azabicyclo[3.2.1]octyl-6-oxy)pyrazine] | 0.34 | 
CCSc1nccnc1O[C@H]1CN2CCC[C@@H]1C2 (relative stereo) [Compound 32, (±)-endo-2-Ethylthio-3-(1-azabicyclo[3.2.1]octyl-6-oxy)pyrazine] | 3.9 | 
CCCCSc1nccnc1OCCN(C)C [Compound 17] | 17 | 
CCCCCCCSc1nccnc1OC1CN2CCC1CC2 (racemic) [Compound 16] | 39 | 
CC(C)CSc1nccnc1O[C@H]1CN2CCC[C@@H]1C2 (relative stereo) [Compound 31, (±)-endo-2-(2-Methylpropylthio)-3-(1-azabicyclo[3.2.1]octyl-6-oxy)-pyrazine] | 3.4 | 
CC(C)=CCCSc1nccnc1O[C@H]1CN2CCC[C@@H]1C2 (relative stereo) [Compound 43, (±)-endo-2-(4-Methyl-3-pentenylthio)-3-(1-azabicyclo[3.2.1]octyl-6-oxy)pyrazine] | 8.1 | 
O=C1CC2(CCCC2)CC(=O)N1CCCCN1CCN(c2ncccn2)CC1 [Buspirone] |  | interaction at 5-HT1A receptors [2]: reasonable potency; interaction at dopamine receptors [3]: reasonable potency
CN1CCC[C@H]1COc1cnccn1 [Compound 28, (S)-2-(1-Methyl-2-pyrrolidinylmethoxy)pyrazine] | > 10000 | 
CN1CCN(CC(=O)N2c3ccccc3C(=O)Nc3cccnc32)CC1 [pirenzepine] |  | selectivity for M1-sites [4]: selective for M1 -sites
CCCSc1nccnc1OC1CN2CCC1CC2 (racemic) [Compound 15] | 14 | 
c1cnc(OC2CN3CCC2CC3)cn1 (racemic) [Compound 8, (+/-)-2-(1-Azabicyclo[2.2.2]octyl-3-oxy)pyrazine] | 1040 | 
CCCCSc1nccnc1OCC[N+](C)(C)C [Compound 18, 3-(1-Butylthio)-2-(2-(trimethylamino)ethoxy)pyrazine iodide] | 21 | 
CCCCCOc1nccnc1OC1CN2CCC1CC2 (racemic) [Compound 9, (+/-)-3-(1-Pentyloxy)-2-(1-azabicyclo[2.2.2]octyl-3-oxy)pyrazine] | 36 | 
c1cnc(O[C@H]2CN3CCC[C@@H]2C3)cn1 [Compound 21, 2-[endo-(+,-)-6-(1-azabicyclo[3.2.1]octyloxy)]-pyrazine] | 26 | 
Clc1cncc(O[C@H]2CN3CCC[C@@H]2C3)n1 (relative stereo) [Compound 22, 6-Chloro-2-[endo-(+,-)-6-(1-azabicyclo[3.2.1]octyloxy)]-pyrazine] | 140 | 

SMILES | IC50 [1] [nM] | other results
CCCCCSc1nccnc1O[C@H]1CN2CCC[C@@H]1C2 (relative stereo) [Compound 30, (±)-endo-2-Pentylthio-3-(1-azabicyclo[3.2.1]octyl-6-oxy)pyrazine] | 4.4 | 
Cc1nccnc1O[C@H]1CN2CCC[C@@H]1C2 (relative stereo) [Compound 20, 3-Methyl-2-[endo-(+,-)-6-(1-azabicyclo[3.2.1]octyloxy)]-pyrazine] | 245 | 
FC(F)(F)CCCSc1nccnc1O[C@H]1CN2CCC[C@@H]1C2 (relative stereo) [Compound 35, (±)-endo-2-(4,4,4-Trifluorobutylthio)-3-(1-azabicyclo[3.2.1]octyl-6-oxy)pyrazine] | 3.2 | 
CCCCOc1nccnc1O[C@H]1CN2CCC[C@@H]1C2 (relative stereo) [Compound 23, 3-(1-butyloxy)-2-[endo-(+,-)-6-(1-azabicyclo[3.2.1]octyloxy)]-pyrazine] | 4.9 | 
Clc1nccnc1O[C@H]1CN2CCC[C@@H]1C2 (relative stereo) [Compound 19, 3-Chloro-2-[endo-(+,-)-6-(1-azabicyclo[3.2.1]octyloxy)]-pyrazine] | 121 | 
C/C=C/CSc1nccnc1O[C@H]1CN2CCC[C@@H]1C2 (relative stereo) [Compound 34, (±)-endo-2-(trans-2-Butenylthio)-3-(1-azabicyclo[3.2.1]octyl-6-oxy)pyrazine] | 2 | 
CCSc1nccnc1OC1CN2CCC1CC2 (racemic) [Compound 14, (+/-)-3-Ethylthio-2-(1-azabicyclo[2.2.2]octyl-3-oxy)pyrazine] | 26 | 
CN(C)CCOc1cnccn1 [Compound 26, 2-(2-Dimethylaminoethoxy)pyrazine] | > 1000 | 
CCOc1nccnc1OC1CN2CCC1CC2 (racemic) [Compound 11] | 56 | 
C(=Cc1ccccc1)CSc1nccnc1O[C@H]1CN2CCC[C@@H]1C2 (relative stereo) [Compound 42, (±)-endo-2-(3-Phenyl-2-propenylthio)-3-(1-azabicyclo[3.2.1]octyl-6-oxy)pyrazine] | 9.1 | 
FC(F)(F)CSc1cncc(O[C@H]2CN3CCC[C@@H]2C3)n1 (relative stereo) [Compound 40, (±)-endo-2-(2.2.2-Trifluoroethylthio)-6-(1-azabicyclo[3.2.1]octyl-6-oxy)pyrazine] | 60 | 
CCCCSc1nccnc1O[C@H]1CN2CCC[C@@H]1C2 (relative stereo) [Compound 24, 3-(1-butylthio)-2-[endo-(+,-)-6-(1-azabicyclo[3.2.1]octyloxy)]-pyrazine] | 2.2 | 
CN1[C@@H]2CC[C@H]1C[C@@H](Oc1cnccn1)C2 [Compound 25, endo-(8-methyl-8-azabicyclo[3.2.1]octyl-3-oxy)pyrazine] | 180 | 
COCCSc1nccnc1O[C@H]1CN2CCC[C@@H]1C2 (relative stereo) [Compound 41, (±)-endo-2-(2-methoxyethylthio)-3-(1-azabicyclo[3.2.1octyl-6-oxy)pyrazine] | 3.2 | 
COc1nccnc1OC1CN2CCC1CC2 (racemic) [Compound 10, (+/-)-3-Methoxy-2-(1-azabicyclo[2.2.2]octyl-3-oxy)pyrazine] | 354 | 
CCCCCSc1nccnc1OC1CN2CCC1CC2 (racemic) [Compound 7, (+/-)-3-Pentylthio-2-(1-azabicyclo[2.2.2]octyl-3-oxy)pyrazine] | 16 | 
CSc1nccnc1OC1CN2CCC1CC2 (racemic) [Compound 13, (+/-)-3-Methylthio-2-(1-azabicyclo[2.2.2]octyl-3-oxy)pyrazine] | 74 | 
CCCSc1cncc(O[C@H]2CN3CCC[C@@H]2C3)n1 (relative stereo) [Compound 39, (±)-endo-2-Propylthio-6-(1-azabicyclo[3.2.1]octyl-6-oxy)pyrazine] | 10 | 
FC(F)(F)Oc1ccc(CSc2nccnc2O[C@H]2CN3CCC[C@@H]2C3)cc1 (relative stereo) [Compound 38, (±)-endo-2-(4-Trifluoromethoxybenzylthio)-3-(1-azabicyclo[3.2.1]octyl-6-oxy)pyrazine] | 6.2 | 
